Values joined by “and” are separate entries in the source; they are usually repeats but may differ in a detail not shown here. Identical values can stand only once. Toxic doses and inconclusive results are not listed.
Test system: P388 leukemia ip, CD2F1 mice, survival T/C
Assay: NCI In Vivo Anticancer Drug Screen. Data for tumor model P388 Leukemia (intraperitoneal) in CD2F1 (CDF1) mice
Conditions: endpoint: median survival time, higher = longer survival
Procedure, shortened: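 Mice carrying the transplanted tumor received test compound or vehicle. Survival was recorded in each group, and the value is the treated-group measurement divided by that of the vehicle-treated control group.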

[1] = dose: 100.0 mg/kg/injection, schedule: Q04DX003 (ip), vehicle: saline with Tween-80
[2] = dose: 100.0 mg/kg/injection, schedule: Q01DX005 (ip), vehicle: saline with Tween-80
[3] = dose: 200.0 mg/kg/injection, schedule: Q01DX005 (ip), vehicle: saline with Tween-80
[4] = dose: 100.0 mg/kg/injection, schedule: Q01DX001 (ip), vehicle: Klucel (hydroxypropylcellulose) (HPC)
[5] = dose: 200.0 mg/kg/injection, schedule: Q01DX001 (ip), vehicle: Klucel (hydroxypropylcellulose) (HPC)
[6] = dose: 400.0 mg/kg/injection, schedule: Q01DX001 (ip), vehicle: Klucel (hydroxypropylcellulose) (HPC)
[7] = dose: 50.0 mg/kg/injection, schedule: Q01DX009 (ip), vehicle: Klucel (hydroxypropylcellulose) (HPC)
[8] = dose: 100.0 mg/kg/injection, schedule: Q01DX009 (ip), vehicle: Klucel (hydroxypropylcellulose) (HPC)
[9] = dose: 200.0 mg/kg/injection, schedule: Q01DX009 (ip), vehicle: Klucel (hydroxypropylcellulose) (HPC)
[10] = dose: 200.0 mg/kg/injection, schedule: Q01DX005 (ip), vehicle: Klucel (hydroxypropylcellulose) (HPC)

SMILES: CC(C)C1=CC2=CCC3C(C)(C(N)=O)CCCC3(C)C2CC1CC#N (configuration not stated)
- T/C [1]: 95 % of control
- T/C (dose: 200.0 mg/kg/injection, schedule: Q04DX003 (ip), vehicle: saline with Tween-80): 91 % of control
- T/C (dose: 400.0 mg/kg/injection, schedule: Q04DX003 (ip), vehicle: saline with Tween-80): 91 % of control

SMILES: N=C(N)c1ccc(OCCCOc2ccc(C(=N)N)cc2)cc1
- T/C (dose: 6.25 mg/kg/injection, schedule: Q01DX005 (ip), vehicle: saline): 108 % of control
- T/C (dose: 12.5 mg/kg/injection, schedule: Q01DX005 (ip), vehicle: saline): 117 % of control
- T/C (dose: 25.0 mg/kg/injection, schedule: Q01DX005 (ip), vehicle: saline): 115 % of control

SMILES: C/C(=N/N=C(N)N)c1ccc(NC(=O)Nc2ccc(/C(C)=N/N=C(N)N)cc2)cc1
- T/C (dose: 6.25 mg/kg/injection, schedule: Q01DX009 (ip), vehicle: water): 151 % of control
- T/C [1]: 150 % of control
- T/C (dose: 150.0 mg/kg/injection, schedule: Q04DX003 (ip), vehicle: saline with Tween-80): 118 % of control

SMILES: Nc1c(C(=O)NCc2ccccc2)c2nc3c(C(=O)NCc4ccccc4)cccc3oc-2cc1=O
- T/C (dose: 1.56 mg/kg/injection, schedule: Q01DX005 (ip), vehicle: saline with Tween-80): 99 % of control
- T/C (dose: 3.12 mg/kg/injection, schedule: Q01DX005 (ip), vehicle: saline with Tween-80): 89 % of control
- T/C (dose: 6.25 mg/kg/injection, schedule: Q01DX005 (ip), vehicle: saline with Tween-80): 89 % of control
- T/C [2]: 86 % of control
- T/C [3]: 100 % of control

SMILES: Cc1nc(-c2ccccc2)nc2c1nc(Cc1ccccc1)n2Nc1ccccc1
- T/C [4]: 87 % of control
- T/C [5]: 91 % of control
- T/C [6]: 87 % of control

SMILES: O=C1OC2(C=C(O)C1=O)CCCCC2
- T/C (dose: 60.0 mg/kg/injection, schedule: Q01DX005 (ip), vehicle: Klucel (hydroxypropylcellulose) (HPC)): 106 % of control
- T/C (dose: 120.0 mg/kg/injection, schedule: Q01DX005 (ip), vehicle: Klucel (hydroxypropylcellulose) (HPC)): 107 % of control
- T/C (dose: 240.0 mg/kg/injection, schedule: Q01DX005 (ip), vehicle: Klucel (hydroxypropylcellulose) (HPC)): 116 % of control

SMILES: CC1=CC(C)(C)NC(=S)N1c1cccc(Cl)c1
- T/C (dose: 3.12 mg/kg/injection, schedule: Q01DX009 (ip), vehicle: saline with Tween-80): 107 % of control and 118 % of control
- T/C (dose: 6.25 mg/kg/injection, schedule: Q01DX009 (ip), vehicle: saline with Tween-80): 111 % of control and 114 % of control
- T/C (dose: 12.5 mg/kg/injection, schedule: Q01DX009 (ip), vehicle: saline with Tween-80): 101 % of control and 118 % of control
- T/C (dose: 100.0 mg/kg/injection, schedule: Q01DX009 (ip), vehicle: saline with Tween-80): 93 % of control
- T/C (dose: 200.0 mg/kg/injection, schedule: Q01DX009 (ip), vehicle: saline with Tween-80): 90 % of control
- T/C (dose: 400.0 mg/kg/injection, schedule: Q01DX009 (ip), vehicle: saline with Tween-80): 90 % of control

SMILES: CCN=C1SC2C(=O)N(C)C(S1)C(=O)N2C
- T/C (dose: 6.25 mg/kg/injection, schedule: Q04DX002 (ip), vehicle: saline): 100 % of control
- T/C (dose: 12.5 mg/kg/injection, schedule: Q04DX002 (ip), vehicle: saline): 103 % of control
- T/C (dose: 25.0 mg/kg/injection, schedule: Q04DX002 (ip), vehicle: saline): 105 % of control

SMILES: CC(=O)Nc1ccsc1S(=O)(=O)c1sccc1NC(C)=O
- T/C (dose: 100.0 mg/kg/injection, schedule: Q04DX002 (ip), vehicle: saline with Tween-80): 100 % of control
- T/C (dose: 200.0 mg/kg/injection, schedule: Q04DX002 (ip), vehicle: saline with Tween-80): 99 % of control
- T/C (dose: 400.0 mg/kg/injection, schedule: Q04DX002 (ip), vehicle: saline with Tween-80): 98 % of control

SMILES: CC(/C=C/c1ccccc1)=N\Nc1ccc(Cl)c(Cl)c1
- T/C [7]: 102 % of control
- T/C [8]: 102 % of control
- T/C [9]: 100 % of control

SMILES: CN1CCc2c1n(-c1ccccc1)c(=S)n(-c1ccccc1)c2=S
- T/C (dose: 50.0 mg/kg/injection, schedule: Q01DX005 (ip), vehicle: Klucel (hydroxypropylcellulose) (HPC)): 107 % of control
- T/C (dose: 100.0 mg/kg/injection, schedule: Q01DX005 (ip), vehicle: Klucel (hydroxypropylcellulose) (HPC)): 100 % of control
- T/C [10]: 98 % of control

SMILES: N#Cc1c(=O)n(O)c2ccccc2[n+]1[O-]
- T/C (dose: 25.0 mg/kg/injection, schedule: Q01DX005 (ip), vehicle: saline with Tween-80): 94 % of control
- T/C (dose: 50.0 mg/kg/injection, schedule: Q01DX005 (ip), vehicle: saline with Tween-80): 97 % of control
- T/C [2]: 106 % of control
- T/C [3]: 102 % of control
- T/C (dose: 400.0 mg/kg/injection, schedule: Q01DX005 (ip), vehicle: saline with Tween-80): 93 % of control

SMILES: N#CC(N)C(F)c1ccccc1 (configuration not stated)
- T/C [4]: 100 % of control
- T/C [5]: 101 % of control
- T/C [6]: 101 % of control

SMILES: COC(=O)c1nc(N)nc(C(=O)OC)c1C(=O)c1cccs1
- T/C (dose: 60.0 mg/kg/injection, schedule: Q01DX005 (ip), vehicle: saline with Tween-80): 98 % of control
- T/C (dose: 120.0 mg/kg/injection, schedule: Q01DX005 (ip), vehicle: saline with Tween-80): 99 % of control

SMILES: COC12C(COC(=O)NCCO)C3=C(C(=O)C(C)=C(N)C3=O)N1CC1NC12 (configuration not stated)
- T/C (dose: 3.12 mg/kg/injection, schedule: Q01DX009 (ip), vehicle: Klucel (hydroxypropylcellulose) (HPC)): 122 % of control
- T/C (dose: 3.13 mg/kg/injection, schedule: Q01DX009 (ip), vehicle: Klucel (hydroxypropylcellulose) (HPC)): 169 % of control
- T/C (dose: 4.5 mg/kg/injection, schedule: Q01DX009 (ip), vehicle: Klucel (hydroxypropylcellulose) (HPC)): 155 % of control
- T/C (dose: 6.25 mg/kg/injection, schedule: Q01DX009 (ip), vehicle: Klucel (hydroxypropylcellulose) (HPC)): 163 % of control and 175 % of control
- T/C (dose: 9.0 mg/kg/injection, schedule: Q01DX009 (ip), vehicle: Klucel (hydroxypropylcellulose) (HPC)): 190 % of control
- T/C (dose: 12.5 mg/kg/injection, schedule: Q01DX009 (ip), vehicle: Klucel (hydroxypropylcellulose) (HPC)): 160 % of control and 212 % of control
- T/C (dose: 18.0 mg/kg/injection, schedule: Q01DX009 (ip), vehicle: Klucel (hydroxypropylcellulose) (HPC)): 192 % of control and 201 % of control and 238 % of control
- T/C (dose: 25.0 mg/kg/injection, schedule: Q01DX009 (ip), vehicle: Klucel (hydroxypropylcellulose) (HPC)): 211 % of control and 214 % of control
- T/C (dose: 28.0 mg/kg/injection, schedule: Q01DX009 (ip), vehicle: Klucel (hydroxypropylcellulose) (HPC)): 181 % of control and 182 % of control
- T/C (dose: 43.0 mg/kg/injection, schedule: Q01DX009 (ip), vehicle: Klucel (hydroxypropylcellulose) (HPC)): 92 % of control
- T/C [7]: 104 % of control

SMILES: CC(C)C[NH-].CC(C)C[NH-].O.O.[Cl][Pt+2][Cl]
- T/C (dose: 11.0 mg/kg/injection, schedule: Q01DX009 (ip), vehicle: saline with Tween-80): 167 % of control
- T/C (dose: 12.5 mg/kg/injection, schedule: Q01DX009 (ip), vehicle: other): 181 % of control
- T/C (dose: 16.5 mg/kg/injection, schedule: Q01DX009 (ip), vehicle: saline with Tween-80): 180 % of control
- T/C (dose: 25.0 mg/kg/injection, schedule: Q01DX009 (ip), vehicle: other): 200 % of control
- T/C (dose: 25.0 mg/kg/injection, schedule: Q01DX009 (ip), vehicle: saline with Tween-80): 218 % of control

SMILES: Cc1cccc(Nc2nc(C)nc3[nH]cc(-c4ccccc4)c23)c1
- T/C (dose: 6.25 mg/kg/injection, schedule: Q01DX005 (ip), vehicle: Klucel (hydroxypropylcellulose) (HPC)): 91 % of control
- T/C (dose: 12.5 mg/kg/injection, schedule: Q01DX005 (ip), vehicle: Klucel (hydroxypropylcellulose) (HPC)): 90 % of control
- T/C [10]: 88 % of control

SMILES: CCC1C(=O)OCCOCCOCCOCCOCCOC1=O
- T/C [7]: 100 % of control
- T/C [8]: 107 % of control
- T/C [9]: 99 % of control

SMILES: CC(=O)OC1C/C(C)=C/CCC(C)/C=C/C2(C)CCC(C(C)(C)O)C12 (configuration not stated)
- T/C (dose: 8.0 mg/kg/injection, schedule: Q01DX009 (ip), vehicle: Klucel (hydroxypropylcellulose) (HPC)): 105 % of control
- T/C (dose: 16.0 mg/kg/injection, schedule: Q01DX009 (ip), vehicle: Klucel (hydroxypropylcellulose) (HPC)): 106 % of control
- T/C (dose: 32.0 mg/kg/injection, schedule: Q01DX009 (ip), vehicle: Klucel (hydroxypropylcellulose) (HPC)): 106 % of control
- T/C (dose: 64.0 mg/kg/injection, schedule: Q01DX009 (ip), vehicle: Klucel (hydroxypropylcellulose) (HPC)): 106 % of control

SMILES: CO[Si](CCCN)(OC)OC
- T/C (dose: 50.0 mg/kg/injection, schedule: Q01DX009 (ip), vehicle: saline): 119 % of control
- T/C (dose: 100.0 mg/kg/injection, schedule: Q01DX009 (ip), vehicle: saline): 105 % of control
- T/C (dose: 200.0 mg/kg/injection, schedule: Q01DX009 (ip), vehicle: saline): 110 % of control
